The values below come from patent US20220389061A1, “IMMUNOMODULATORS” (priority 2019, published 2022).

Starred links: 1 amine or outer side, 2 acyl side, 3 side chain; linkers in the order of their positions; H or OH if unused. Positions of bridges follow the written chain, without caps; N, C: chain ends. Non-standard residues stand in square brackets, D forms with d. Residues, ends and D or L forms follow the SMILES beside them. Groups on a side chain read outwards from the residue. *: point of attachment. Trp(1-CH2CO2Me) = COC(=O)Cn1cc(C[C@H](N)C(=O)O)c2ccccc21; Trp(1-CH2COOH) = N[C@@H](Cc1cn(CC(=O)O)c2ccccc12)C(=O)O; Benzoyl(2-(4-MeOPh)) = COc1ccc(-c2ccccc2C(=O)*)cc1; NH(3,5-Cl2-phenyl) = Clc1cc(Cl)cc(N*)c1; X88 = Cc1cc([N+](=O)[O-])ccc1NC(=S)*; Hyp = O=C(O)[C@@H]1C[C@@H](O)CN1; X56 = COc1cc([N+](=O)[O-])ccc1N*; X78 = S=C(Nc1c(Cl)cc(Cl)cc1Cl)*; X84 = COc1cc(NC(=S)*)cc(OC)c1OC; X28 = Cc1ccc(Cl)c(NC(=S)*)c1Cl; X29 = c1ccc(Oc2ccc(N*)cc2)cc1; NMeNle = CCCC[C@H](NC)C(=O)O; X64 = COc1cc(OC)c(N*)cc1Cl; X74 = Cc1cc(C)c(N*)c(C)c1; 4Abz = Nc1ccc(C(=O)O)cc1; NMeA = CN[C@@H](C)C(=O)O; Dab = NCC[C@H](N)C(=O)O; Dap = NC[C@H](N)C(=O)O; X46 = COc1ccc(Cl)cc1N*; X77 = Clc1cccc(N*)c1Cl; CO = O=C([*:1])[*:2]

Usually IC50 stands for the concentration at which inhibition is half-maximal.

The first experiment deals with T1, PD-1/PD-L1 (Homo sapiens, UniProt Q9NZQ7).
T1 construct: TVMV protease site linker (C); made in house; host or cells: HEK293T cells
T1 sequence (Q9NZQ7 18-239): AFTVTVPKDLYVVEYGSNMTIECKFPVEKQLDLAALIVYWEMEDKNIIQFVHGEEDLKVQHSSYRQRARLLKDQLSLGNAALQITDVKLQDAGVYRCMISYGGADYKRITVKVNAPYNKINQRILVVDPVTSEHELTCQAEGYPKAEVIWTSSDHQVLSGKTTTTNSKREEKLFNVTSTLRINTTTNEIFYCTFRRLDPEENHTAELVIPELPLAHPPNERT
Put plainly: PD-1/PD-L1 Homogenous Time-Resolved Fluorescence (HTRF) binding assay.
Settings: not given
A digest of the protocol: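 Compounds preincubated 15 min with PD-L1-His (10 nM final), then PD-1-Ig (20 nM final) added for 15 min in dPBS with 0.1% BSA, 0.05% Tween-20. Detection by Eu-cryptate anti-Ig (1 nM) and APC anti-His (20 nM) HTRF.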
For orientation: In TR-FRET formats the signal depends on donor and acceptor labels being close together.
`CCCC[C@H]1C(=O)N(C)[C@@H](CCCC)C(=O)N[C@@H](CC(C)C)C(=O)N[C@H](C(=O)NCC(N)=O)CSCC(=O)N[C@@H](Cc2ccc(O)cc2)C(=O)N(C)[C@@H](C)C(=O)N[C@@H](CC(N)=O)C(=O)N2CCC[C@H]2C(=O)N[C@@H](CNC(=O)Nc2cc(Cl)cc(Cl)c2)C(=O)N[C@@H](CC(C)C)C(=O)N2C[C@H](O)C[C@H]2C(=O)N[C@@H](Cc2c[nH]c3ccccc23)C(=O)N[C@@H](CCN)C(=O)N[C@@H](Cc2cn(CC(=O)O)c3ccccc23)C(=O)N1C` [Example 1068] ({CH2CO}-Y[NMeA]NP[Dap]([CO-NH(3,5-Cl2-phenyl)])L[Hyp]W[Dab][Trp(1-CH2COOH)][NMeNle][NMeNle]LCG-NH2; thioether N-14) showed an IC50 of 4.3 nM.
The same measure, in the same setting: under `CCCC[C@H]1C(=O)N(C)[C@@H](CCCC)C(=O)N[C@@H](CC(C)C)C(=O)N[C@H](C(=O)NCC(N)=O)CSCC(=O)N[C@@H](Cc2ccc(O)cc2)C(=O)N(C)[C@@H](C)C(=O)N[C@@H](CC(N)=O)C(=O)N2CCC[C@H]2C(=O)N[C@@H](CNC(=O)Nc2cccc(Cl)c2Cl)C(=O)N[C@@H](CC(C)C)C(=O)N2C[C@H](O)C[C@H]2C(=O)N[C@@H](Cc2c[nH]c3ccccc23)C(=O)N[C@@H](CCN)C(=O)N[C@@H](Cc2cn(CC(=O)O)c3ccccc23)C(=O)N1C` [Example 1071] ({CH2CO}-Y[NMeA]NP[Dap]([CO-X77])L[Hyp]W[Dab][Trp(1-CH2COOH)][NMeNle][NMeNle]LCG-NH2; thioether N-14) stands 2.3 nM; under `CCCC[C@H]1C(=O)N(C)[C@@H](CCCC)C(=O)N[C@@H](CC(C)C)C(=O)N[C@H](C(=O)NCC(N)=O)CSCC(=O)N[C@@H](Cc2ccc(O)cc2)C(=O)N(C)[C@@H](C)C(=O)N[C@@H](CC(N)=O)C(=O)N2CCC[C@H]2C(=O)N[C@@H](CNC(=O)Nc2ccc([N+](=O)[O-])cc2OC)C(=O)N[C@@H](CC(C)C)C(=O)N2C[C@H](O)C[C@H]2C(=O)N[C@@H](Cc2c[nH]c3ccccc23)C(=O)N[C@@H](CCNC(=O)Nc2ccc([N+](=O)[O-])cc2OC)C(=O)N[C@@H](Cc2cn(CC(=O)O)c3ccccc23)C(=O)N1C` [Example 1076] ({CH2CO}-Y[NMeA]NP[Dap]([CO-X56])L[Hyp]W[Dab]([CO-X56])[Trp(1-CH2COOH)][NMeNle][NMeNle]LCG-NH2; thioether N-14), 8.1 nM.

The experiment is the same for the next values; noted with them: PD-L1-His 10 nM pre-incubated with inhibitor, PD-1-Ig 20 nM; read-out: HTRF IC50.
`CCCC[C@H]1C(=O)N(C)[C@@H](CCCC)C(=O)N[C@@H](CC(C)C)C(=O)N[C@H](C(=O)NCC(N)=O)CSCC(=O)N[C@@H](Cc2ccc(O)cc2)C(=O)N(C)[C@@H](C)C(=O)N[C@@H](CC(N)=O)C(=O)N2CCC[C@H]2C(=O)N[C@@H](CNC(=S)Nc2cc(OC)c(OC)c(OC)c2)C(=O)N[C@@H](CC(C)C)C(=O)N2C[C@H](O)C[C@H]2C(=O)N[C@@H](Cc2c[nH]c3ccccc23)C(=O)N[C@@H](CCN)C(=O)N[C@@H](Cc2cn(CC(=O)O)c3ccccc23)C(=O)N1C` [Example 1065] ({CH2CO}-Y[NMeA]NP[Dap](X84)L[Hyp]W[Dab][Trp(1-CH2COOH)][NMeNle][NMeNle]LCG-NH2; thioether N-14): the concentration for half-maximal inhibition (IC50) is 2.8 nM.
Regarding `CCCC[C@H]1C(=O)N(C)[C@@H](CCCC)C(=O)N[C@@H](CC(C)C)C(=O)N[C@H](C(=O)NCC(N)=O)CSCC(=O)N[C@@H](Cc2ccc(O)cc2)C(=O)N(C)[C@@H](C)C(=O)N[C@@H](CC(N)=O)C(=O)N2CCC[C@H]2C(=O)N[C@@H](CNC(=O)Nc2c(C)cc(C)cc2C)C(=O)N[C@@H](CC(C)C)C(=O)N2C[C@H](O)C[C@H]2C(=O)N[C@@H](Cc2c[nH]c3ccccc23)C(=O)N[C@@H](CCN)C(=O)N[C@@H](Cc2cn(CC(=O)O)c3ccccc23)C(=O)N1C` [Example 1066] ({CH2CO}-Y[NMeA]NP[Dap]([CO-X74])L[Hyp]W[Dab][Trp(1-CH2COOH)][NMeNle][NMeNle]LCG-NH2; thioether N-14), the IC50 was found to be 2.9 nM.
Regarding `CCCC[C@H]1C(=O)N(C)[C@@H](CCCC)C(=O)N[C@@H](CC(C)C)C(=O)N[C@H](C(=O)NCC(N)=O)CSCC(=O)N[C@@H](Cc2ccc(O)cc2)C(=O)N(C)[C@@H](C)C(=O)N[C@@H](CC(N)=O)C(=O)N2CCC[C@H]2C(=O)N[C@@H](CNC(=O)Nc2cc(Cl)c(OC)cc2OC)C(=O)N[C@@H](CC(C)C)C(=O)N2C[C@H](O)C[C@H]2C(=O)N[C@@H](Cc2c[nH]c3ccccc23)C(=O)N[C@@H](CCN)C(=O)N[C@@H](Cc2cn(CC(=O)O)c3ccccc23)C(=O)N1C` [Example 1067] ({CH2CO}-Y[NMeA]NP[Dap]([CO-X64])L[Hyp]W[Dab][Trp(1-CH2COOH)][NMeNle][NMeNle]LCG-NH2; thioether N-14), the 50% inhibitory concentration (IC50) amounted to 2.7 nM.
Still for that read-out and setting: to `CCCC[C@H]1C(=O)N(C)[C@@H](CCCC)C(=O)N[C@@H](CC(C)C)C(=O)N[C@H](C(=O)NCC(N)=O)CSCC(=O)N[C@@H](Cc2ccc(O)cc2)C(=O)N(C)[C@@H](C)C(=O)N[C@@H](CC(N)=O)C(=O)N2CCC[C@H]2C(=O)N[C@@H](CNC(=O)Nc2ccc(C(=O)OCC)cc2)C(=O)N[C@@H](CC(C)C)C(=O)N2C[C@H](O)C[C@H]2C(=O)N[C@@H](Cc2c[nH]c3ccccc23)C(=O)N[C@@H](CCN)C(=O)N[C@@H](Cc2cn(CC(=O)O)c3ccccc23)C(=O)N1C` [Example 1069] ({CH2CO}-Y[NMeA]NP[Dap]([CO-4Abz-OEt])L[Hyp]W[Dab][Trp(1-CH2COOH)][NMeNle][NMeNle]LCG-NH2; thioether N-14) belongs 0.4 nM; to `CCCC[C@H]1C(=O)N(C)[C@@H](CCCC)C(=O)N[C@@H](CC(C)C)C(=O)N[C@H](C(=O)NCC(N)=O)CSCC(=O)N[C@@H](Cc2ccc(O)cc2)C(=O)N(C)[C@@H](C)C(=O)N[C@@H](CC(N)=O)C(=O)N2CCC[C@H]2C(=O)N[C@@H](CNC(=O)Nc2ccc(Oc3ccccc3)cc2)C(=O)N[C@@H](CC(C)C)C(=O)N2C[C@H](O)C[C@H]2C(=O)N[C@@H](Cc2c[nH]c3ccccc23)C(=O)N[C@@H](CCN)C(=O)N[C@@H](Cc2cn(CC(=O)O)c3ccccc23)C(=O)N1C` [Example 1070] ({CH2CO}-Y[NMeA]NP[Dap]([CO-X29])L[Hyp]W[Dab][Trp(1-CH2COOH)][NMeNle][NMeNle]LCG-NH2; thioether N-14), 5.5 nM.
Take `CCCC[C@H]1C(=O)N(C)[C@@H](CCCC)C(=O)N[C@@H](CC(C)C)C(=O)N[C@H](C(=O)NCC(N)=O)CSCC(=O)N[C@@H](Cc2ccc(O)cc2)C(=O)N(C)[C@@H](C)C(=O)N[C@@H](CC(N)=O)C(=O)N2CCC[C@H]2C(=O)N[C@@H](CNC(=S)Nc2ccc([N+](=O)[O-])cc2C)C(=O)N[C@@H](CC(C)C)C(=O)N2C[C@H](O)C[C@H]2C(=O)N[C@@H](Cc2c[nH]c3ccccc23)C(=O)N[C@@H](CCN)C(=O)N[C@@H](Cc2cn(CC(=O)O)c3ccccc23)C(=O)N1C` [Example 1072] ({CH2CO}-Y[NMeA]NP[Dap](X88)L[Hyp]W[Dab][Trp(1-CH2COOH)][NMeNle][NMeNle]LCG-NH2; thioether N-14): the IC50 is 4.9 nM.
Same read-out and setting: under `CCCC[C@H]1C(=O)N(C)[C@@H](CCCC)C(=O)N[C@@H](CC(C)C)C(=O)N[C@H](C(=O)NCC(N)=O)CSCC(=O)N[C@@H](Cc2ccc(O)cc2)C(=O)N(C)[C@@H](C)C(=O)N[C@@H](CC(N)=O)C(=O)N2CCC[C@H]2C(=O)N[C@@H](CNC(=S)Nc2c(Cl)ccc(C)c2Cl)C(=O)N[C@@H](CC(C)C)C(=O)N2C[C@H](O)C[C@H]2C(=O)N[C@@H](Cc2c[nH]c3ccccc23)C(=O)N[C@@H](CCN)C(=O)N[C@@H](Cc2cn(CC(=O)O)c3ccccc23)C(=O)N1C` [Example 1073] ({CH2CO}-Y[NMeA]NP[Dap](X28)L[Hyp]W[Dab][Trp(1-CH2COOH)][NMeNle][NMeNle]LCG-NH2; thioether N-14) stands 7.9 nM.
The same measure, in the same setting: to `CCCC[C@H]1C(=O)N(C)[C@@H](CCCC)C(=O)N[C@@H](CC(C)C)C(=O)N[C@H](C(=O)NCC(N)=O)CSCC(=O)N[C@@H](Cc2ccc(O)cc2)C(=O)N(C)[C@@H](C)C(=O)N[C@@H](CC(N)=O)C(=O)N2CCC[C@H]2C(=O)N[C@@H](CNC(=O)Nc2cc(Cl)ccc2OC)C(=O)N[C@@H](CC(C)C)C(=O)N2C[C@H](O)C[C@H]2C(=O)N[C@@H](Cc2c[nH]c3ccccc23)C(=O)N[C@@H](CCN)C(=O)N[C@@H](Cc2cn(CC(=O)O)c3ccccc23)C(=O)N1C` [Example 1074] ({CH2CO}-Y[NMeA]NP[Dap]([CO-X46])L[Hyp]W[Dab][Trp(1-CH2COOH)][NMeNle][NMeNle]LCG-NH2; thioether N-14) belongs 6.3 nM; to `CCCC[C@H]1C(=O)N(C)[C@@H](CCCC)C(=O)N[C@@H](CC(C)C)C(=O)N[C@H](C(=O)NCC(N)=O)CSCC(=O)N[C@@H](Cc2ccc(OC)cc2)C(=O)N(C)[C@@H](C)C(=O)N[C@@H](CC(N)=O)C(=O)N2CCC[C@H]2C(=O)N[C@@H](CNC(=O)c2ccccc2-c2ccc(OC)cc2)C(=O)N[C@@H](CC(C)C)C(=O)N2C[C@H](O)C[C@H]2C(=O)N[C@@H](Cc2c[nH]c3ccccc23)C(=O)N[C@@H](CCNC(=O)c2ccccc2-c2ccc(OC)cc2)C(=O)N[C@@H](Cc2cn(CC(=O)OC)c3ccccc23)C(=O)N1C` [Example 1075] ({CH2CO}-Y(Me)[NMeA]NP[Dap](Benzoyl(2-(4-MeOPh)))L[Hyp]W[Dab](Benzoyl(2-(4-MeOPh)))[Trp(1-CH2CO2Me)][NMeNle][NMeNle]LCG-NH2; thioether N-14), 91 nM; to `CCCC[C@H]1C(=O)N(C)[C@@H](CCCC)C(=O)N[C@@H](CC(C)C)C(=O)N[C@H](C(=O)NCC(N)=O)CSCC(=O)N[C@@H](Cc2ccc(O)cc2)C(=O)N(C)[C@@H](C)C(=O)N[C@@H](CC(N)=O)C(=O)N2CCC[C@H]2C(=O)N[C@@H](CNC(=S)Nc2c(Cl)cc(Cl)cc2Cl)C(=O)N[C@@H](CC(C)C)C(=O)N2C[C@H](O)C[C@H]2C(=O)N[C@@H](Cc2c[nH]c3ccccc23)C(=O)N[C@@H](CCNC(=S)Nc2c(Cl)cc(Cl)cc2Cl)C(=O)N[C@@H](Cc2cn(CC(=O)O)c3ccccc23)C(=O)N1C` [Example 1077] ({CH2CO}-Y[NMeA]NP[Dap](X78)L[Hyp]W[Dab](X78)[Trp(1-CH2COOH)][NMeNle][NMeNle]LCG-NH2; thioether N-14), 5.7 nM.
